What all share (test): 1H–[…] HSQC NMR chemical shift titration
What all share (format): binding

The target in assay [1] is T1, XlnB2-E87A (Streptomyces lividans, UniProt P26515, E128A).
The next assay deals with xylanase B2 (XlnB2) (Streptomyces lividans, UniProt P26515).
The target in assay [2] is T1, XlnB2-E87A. The source holds these as a separate data set.

Read-outs that look alike come from different tables or passages of the source.

Regarding `OC1OC[C@@H](O[C@@H]2OC[C@@H](O[C@@H]3OC[C@@H](O[C@@H]4OC[C@@H](O[C@@H]5OC[C@@H](O)[C@H](O)[C@H]5O)[C@H](O)[C@H]4O)[C@H](O)[C@H]3O)[C@H](O)[C@H]2O)[C@H](O)[C@H]1O` (stereo partly drawn) [X5, xylopentaose], on XlnB2-E87A [1], the Kd came out at 7.93 mM.
In the case of `OC1OC[C@@H](O[C@@H]2OC[C@@H](O)[C@H](O)[C@H]2O)[C@H](O)[C@H]1O` (stereo partly drawn) [X2, xylobiose], the Kd was 7.07 mM at xylanase B2 (XlnB2) and 8.71 mM at XlnB2-E87A [2].

A word on the Kd: it is the equilibrium constant for the complex coming apart.
